System: Ehrlich-Ascites-Tumorzellen
Assay: Inhibition of proliferation of Ehrlich ascites tumour cells in vitro
Type: cell-based
Conditions: read-out: Hemmung der Proliferation (%) von Ehrlich-Ascites-Tumorzellen in vitro, % Hemmung; for inhibition at 1 µM: Konzentration 1 µM; for inhibition at 2 µM: Konzentration 2 µM; for inhibition at 5 µM: Konzentration 5 µM; for inhibition at 10 µM: Konzentration 10 µM; for inhibition at 20 µM: Konzentration 20 µM; for inhibition at 100 µM: Konzentration 100 µM
Source text: Die Verbindungen der allgemeinen Formel I und Salze davon sind biologisch hochaktiv und besitzen insbesondere eine ausgeprägte Antitumorwirksamkeit. Diese wertvollen pharmakologischen Eigenschaften können in vitro und in vivo unter Verwendung von Standardmethoden nachgewiesen werden, beispielsweise indem die Hemmung der Proliferation von Ehrlich-Ascites-Tumorzellen in vitro unter Einwirkung von Glycero-3(2)-phospho-L-serinderivaten der allgemeinen Formel I bestimmt wird. • In diesem Test (Tabelle I) bewirken die erfindungsgemäßen Verbindungen, beispielsweise • 1-0-Hexadecyl-2-chlor-2-desoxy-glycero-3-phospho-L-serin (Verbindung Nr. 1) • 1-0-Hexadecyl-2-fluor-2-desoxy-glycero-3-phospho-L-serin (Verbindung Nr. 2) • 1-Chlor-1-desoxy-3-0-hexadecyl-glycero-2-phospho-L-serin (Verbindung Nr. 3) • 1-0-(2,2,2-Trifluorethy)-2-0-hexadecyl-glycero-3-phospho-L-serin (Verbindung Nr. 4), schon in sehr geringen Konzentrationen eine signifikante Hemmung des Zellwachstums von Ehrlich-Ascites-Tumorzellen.

| SMILES | inhibition at 1 µM | inhibition at 2 µM | inhibition at 5 µM | inhibition at 10 µM | inhibition at 20 µM | inhibition at 100 µM |
| --- | --- | --- | --- | --- | --- | --- |
| CCCCCCCCCCCCCCCCOCC(F)COP(=O)(O)OC[C@H](N)C(=O)O (stereo partly drawn) [Verbindung Nr. 2, 1-O-Hexadecyl-2-fluor-2-desoxy-glycero-3-phospho-L-serin] | 10% | 13% | 18% | 51% | 82% | 95% |
| CCCCCCCCCCCCCCCCOCC(Cl)COP(=O)(O)OC[C@H](N)C(=O)O (stereo partly drawn) [Verbindung Nr. 1, 1-O-Hexadecyl-2-chlor-2-desoxy-glycero-3-phospho-L-serin] | 16% | 10% | 30% | 55% | 80% | 95% |
| CCCCCCCCCCCCCCCCCCOCC(COP(=O)([O-])OCC[N+](C)(C)C)OC (stereo not shown) [V, 1-O-Octadecyl-2-O-methyl-glycero-3-phosphocholin, reference compound] | 0% | 0% | 4% | 23% | 62% | 100% |
| CCCCCCCCCCCCCCCCOCC(CCl)OP(=O)(O)OC[C@H](N)C(=O)O (stereo partly drawn) [Verbindung Nr. 3, 1-Chlor-1-desoxy-3-O-hexadecyl-glycero-2-phospho-L-serin] | 15% | 17% | 38% | 68% | 81% | 93% |
| CCCCCCCCCCCCCCCCOC(COCC(F)(F)F)COP(=O)(O)OC[C@H](N)C(=O)O (stereo partly drawn) [Verbindung Nr. 4, 1-O-(2,2,2-Trifluorethyl)-2-O-hexadecyl-glycero-3-phospho-L-serin] |  |  | 10% | 36% | 74% | 100% |

From patent EP0229128B1, “DERIVATIVES OF GLYCERO-3(2)-PHOSPHO-L-SERINE AND PHARMACEUTICAL PREPARATIONS CONTAINING THEM” (CL PHARMA AKTIENGESELLSCHAFT, priority 1985, dated 1987)
